# Test results published in US8252814B2, “Agents and crystals for improving excretory potency of urinary bladder” (priority 1998, dated 2012).
# Where two headings read alike, the source gives them in different places. Marks after values point to notes of the source that are not given here.
# Key:
# guinea pigs [1] = test: Effect on the flow rate of urine in guinea pigs, single or combined use, Experimental Example 4; type: in vivo, Hartley male guinea pigs; details: guinea pig; for Improvement (%): 10 minutes after administration
# From the text: Effect on the flow rate of urine by single or combined use of Compounds of Reference Examples, distigmine, prazosin, and tamsulosin was examined using Hartley male guinea pigs. Four to six Hartley male guinea pigs weighing about 350 g (SLC) were employed in each treated group. Guinea pigs were anesthetized with urethane, and held, and the bladder was exposed. Two polyethylene tubes (PE-100) were inserted into the bladder. One of the tubes was used in infusion of physiological saline, and the other used for measurement of the internal pressure of the bladder. Saline was infused continuously at a flow rate of 0.3 mL/min. The infusion was stopped at the time when intermittent urination was confirmed at least 3 times, and the whole saline in bladder was removed. Again, infusion was started, and stopped at the time when a rise of the pressure in bladder was confirmed immediately before urination. Excreted urine was weighed on an electronic force balance (HX-400, A&D). Analogue data of the internal pressure of the bladder and urine weight were input in an AD converter (MP-30, Biopac Systems) and the digital signal was analyzed by means of purpose-made software (Student lab pro 2.1.5, Biopac Systems). Sampling interval of the date was fixed at 0.1 second, and the value of urine weight was differentiated to determine the flow rate of urine. In order to remove data noise of the excretion volume and flow rate of urine, the data was adapted to a lowcut filter at 0.5 Hz.
# Measurement was made 2 times before administration of the test compound, and then the test compound was administered intravenously. Again, measurement was made 10 minutes after administration of the test compound.
# The average measured value before administration of the test compounds was regarded as the value before administration, and the rate of change of the values from the ante-administration to the post-administration was calculated to compare between the groups by means of the Dunnet's test.
# urinary bladder = test: Potentiation effect for rhythmic contraction of urinary bladder in guinea pig, Experimental Example 2; type: in vivo, Hartley male guinea pigs; details: Cavia porcellus, iv, read-out: AUC200 (mg/kg, i.v.)
# Description: Potentiation effect of the compounds disclosed in Reference Examples for rhythmic contraction of urinary bladder was examined using Hartley male guinea pigs. Hartley male guinea pigs (SLC) weighing about 300 g were anesthetized with urethane (1.2 g/kg, i.p.), held, and incised at the midline of abdomen to expose the bladder. The urethra was ligated, and a polyethylene tube (PE-50) was inserted into the bladder. The internal pressure of the bladder was measured with a blood pressure amplifier (Nippon Koden), and the data was collected on a personal computer through an A/D converter (MP-30, Biopac Systems). A proper amount of physiological saline was injected into the bladder through a cannula to induce rhythmic contraction of the to bladder.
# The area (AUC) that is formed by a curve of the internal pressure of the bladder and a base line was calculated through analytical software (Studentlab pro 2.1.5, Biopac Systems) to evaluate the effect of the test compounds. The curve of the internal pressure is made based on the bladder contraction immediately before administration of the test compound and the first contraction 5 minutes after the administration. From the dose-dependent curve of AUC, the dose at which AUC before drug administration was increased 2 times (AUC200) was calculated to determine potency of contraction-enhancing effect of the test compounds for the muscle of urinary bladder. In addition, the potency of contraction-enhancing effect of […] for the muscle of bladder was determined in the same manner as mentioned above.
# [2] = biological target: T1, acetylcholinesterase of human erythrocyte origin (Homo sapiens, UniProt P22303); test: Measurement of acetylcholinesterase-inhibiting action (acetylthiocholine / Ellman method), Experimental Example 1; type: biochemical; details: at least 3 experiments
# T1 construct: Acetylcholinesterase of human erythrocyte origin (Sigma Chemical Co.); purchased Sigma Chemical Co; host or cells: human erythrocytes (natural source)
# T1 sequence (P22303 32-617 isoform P22303-2 limits assumed): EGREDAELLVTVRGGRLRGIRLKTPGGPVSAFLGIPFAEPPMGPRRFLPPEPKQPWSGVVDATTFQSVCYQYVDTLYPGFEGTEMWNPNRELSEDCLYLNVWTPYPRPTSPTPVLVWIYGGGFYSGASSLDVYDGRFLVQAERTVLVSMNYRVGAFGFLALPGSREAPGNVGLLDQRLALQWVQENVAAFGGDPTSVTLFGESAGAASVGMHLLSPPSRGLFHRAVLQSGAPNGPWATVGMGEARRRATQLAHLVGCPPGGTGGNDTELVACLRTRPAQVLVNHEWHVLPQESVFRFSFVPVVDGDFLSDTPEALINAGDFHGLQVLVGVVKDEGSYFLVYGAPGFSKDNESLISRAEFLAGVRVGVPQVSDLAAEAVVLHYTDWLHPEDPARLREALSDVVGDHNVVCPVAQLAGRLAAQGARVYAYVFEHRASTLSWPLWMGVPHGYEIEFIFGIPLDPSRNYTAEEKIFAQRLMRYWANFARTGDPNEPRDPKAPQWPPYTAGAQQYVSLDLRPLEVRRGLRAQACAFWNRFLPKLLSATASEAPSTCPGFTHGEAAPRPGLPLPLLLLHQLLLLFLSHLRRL
# Description: Acetylcholinesterase-inhibiting action of the compounds disclosed in Reference Examples was measured using acetylcholinesterase of human erythrocyte origin according to the acetylthiocholine method (Ellman method).
# Acetylcholinesterase of human erythrocyte origin (Sigma Chemical Co.) was dissolved in distilled water at a concentration of 0.2 IU/mL to give an enzyme authentic sample. To a 96-well microplate was dispensed 20 μL of drug solution, 30 μL of 80 mM Tris-HCl (pH 7.4), 50 μL of enzyme authentic sample and 50 μL of 5 mM 5,5-dithio-bis(2-nitrobenzoic acid) (Sigma Chemical Co.), and the plate was shaken for 10 seconds. Then, 50 μL of acetylthiocholine iodide (Sigma Chemical Co.) was added, and the plate was again shaken. Immediately after shaking, increase of extinction at […] was measured at intervals of 30 seconds for 10 minutes. The enzyme activity was determined according to the following equation.
# The experiment was repeated at least 3 times for each compound to obtain 50% inhibitory concentration (IC50). Moreover, in the same manner as mentioned above, acetylcholinesterase-inhibiting activity of distigmine was measured.
# guinea pigs [3] = test: Effect on urination efficiency in guinea pigs, Experimental Example 3; type: in vivo, Hartley male guinea pigs; details: guinea pig; for Efficiency of Urination (%) Before adm.: before administration; for Efficiency of Urination (%) After adm. / Improvement of Efficiency (%): 10 minutes after administration
# From the text: Effect of the compounds of Reference Examples on urination efficiency was examined using Hartley male guinea pigs. Six to ten Hartley male guinea pigs weighing 346.5±3.5 g (SLC) were employed in each treated group. Guinea pigs were anesthetized with urethane, and held, and the bladder was exposed. Two polyethylene tubes (PE-50 and PE-100) were inserted into the bladder. One (PE-50) of the tubes was used in infusion of physiological saline, and the other (PE-100) was used for measurement of the internal pressure of the bladder. Saline was infused continuously at a flow rate of 0.3 mL/min. The infusion was stopped at the time when intermittent urination was confirmed at least 3 times, and the whole saline in bladder was removed. Again, infusion was started, and stopped at the time when a rise of the pressure in bladder was confirmed immediately before urination, and the time required for infusion and the weight of excreted urine were measured. Efficiency of urination was calculated from the following equation. Efficiency of urination (%)=100×Excreted volume (mL)/Infusion time (min)×0.3 (mL/min)
# Measurement was made at least 2 times before administration of the test compound, and then the test compound was dissolved in distilled water and administered intravenously. […] Effect by administration of solvents was also confirmed.
# The average measured value before administration of the test compounds was regarded as the value before administration, and applied to the paired-t test for a significant difference test with the value after the administration. (** p<0.01, * p<0.05)
# [4] = urethane-anesthetized guinea pig, dose at which AUC of bladder internal pressure before drug administration was increased 2 times
smiles,measurement,setting,value
COc1cc2nc(N3CCN(C(=O)c4ccco4)CC3)nc(N)c2cc1OC [Prazosin],Flow Rate (mL/sec) Ante-admn.,"guinea pigs [1]; prazosin 0.1 mg/kg i.v. group, before administration (Table 8)",0.18 ± 0.03 mL/s
same,Flow Rate (mL/sec) Post-admn.,"guinea pigs [1]; prazosin 0.1 mg/kg i.v., 10 minutes after administration (Table 8)",0.17 ± 0.02 mL/s
same,Improvement (%),"guinea pigs [1]; prazosin 0.1 mg/kg i.v., control DMSO (Table 8)",0.97 ± 10.32%
N#Cc1cccc(CN2CCC(CCC(=O)c3cc4c5c(c3)CCN5C(=O)CC4)CC2)c1 [Reference Example 1],ED (2-fold bladder contraction AUC),urinary bladder; [4],0.005 mg/kg
same,IC50,[2],0.0136 µM
"O=C(CCC1CCN(Cc2cccc(F)c2)CC1)c1cc2c3c(c1)CCN3C(=O)CC2 [Reference Example 15, 8-[3-[1-[(3-fluorophenyl)methyl]-4-piperidinyl]-1-oxopropyl]-1,2,5,6-tetrahydro-4H-pyrrolo[3,2,1-ij]quinolin-4-one]",ED (2-fold bladder contraction AUC),urinary bladder; [4],0.0013 mg/kg
same,IC50,[2],0.0044 µM
same,Flow Rate (mL/sec) Ante-admn.,"guinea pigs [1]; Ref. Ex. 15 0.001 mg/kg i.v. group, before administration (Table 9)",0.17 ± 0.03 mL/s
same,Flow Rate (mL/sec) Post-admn.,"guinea pigs [1]; Ref. Ex. 15 0.001 mg/kg i.v., 10 minutes after administration (Table 9)",0.15 ± 0.02 mL/s
same,Improvement (%),"guinea pigs [1]; Ref. Ex. 15 0.001 mg/kg i.v., control distilled water (Table 9)",−6.5 ± 12.1%
same,Flow Rate (mL/sec) Ante-admn.,"guinea pigs [1]; Ref. Ex. 15 0.01 mg/kg i.v. group, before administration (Table 8)",0.27 ± 0.03 mL/s
same,Flow Rate (mL/sec) Post-admn.,"guinea pigs [1]; Ref. Ex. 15 0.01 mg/kg i.v., 10 minutes after administration (Table 8)",0.29 ± 0.05 mL/s
same,Improvement (%),"guinea pigs [1]; Ref. Ex. 15 0.01 mg/kg i.v., control DMSO (Table 8)",6.81 ± 7.84%
same,Efficiency of Urination (%) Before adm.,guinea pigs [3]; 0.003 mg/kg i.v. group,71.5 ± 7.9%
same,Efficiency of Urination (%) After adm.,guinea pigs [3]; 0.003 mg/kg i.v.,79.6 ± 6.4%
same,Improvement of Efficiency (%),guinea pigs [3]; 0.003 mg/kg i.v.,16.2%
same,Efficiency of Urination (%) Before adm.,guinea pigs [3]; 0.01 mg/kg i.v. group,60.0 ± 7.7%
same,Efficiency of Urination (%) After adm.,guinea pigs [3]; 0.01 mg/kg i.v.,93.9 ± 3.0%
same,Improvement of Efficiency (%),guinea pigs [3]; 0.01 mg/kg i.v.,77.0** %
same,Efficiency of Urination (%) Before adm.,guinea pigs [3]; 0.03 mg/kg i.v. group,65.5 ± 9.0%
same,Efficiency of Urination (%) After adm.,guinea pigs [3]; 0.03 mg/kg i.v.,88.9 ± 3.1%
same,Improvement of Efficiency (%),guinea pigs [3]; 0.03 mg/kg i.v.,66.2* %
"O=C(CCC1CCN(Cc2ccccc2)CC1)c1cc2c3c(c1)CCN3C(=O)CC2 [Reference Example 17, 8-[3-[1-(phenylmethyl)-4-piperidinyl]-1-oxopropyl]-1,2,5,6-tetrahydro-4H-pyrrolo[3,2,1-ij]quinolin-4-one]",ED (2-fold bladder contraction AUC),urinary bladder,0.0034 mg/kg
same,IC50,[2],0.0078 µM
CCOc1ccccc1OCCN[C@H](C)Cc1ccc(OC)c(S(N)(=O)=O)c1 [Tamsulosin],Flow Rate (mL/sec) Ante-admn.,"guinea pigs [1]; tamsulosin 0.1 mg/kg i.v. group, before administration (Table 9)",0.16 ± 0.01 mL/s
same,Flow Rate (mL/sec) Post-admn.,"guinea pigs [1]; tamsulosin 0.1 mg/kg i.v., 10 minutes after administration (Table 9)",0.14 ± 0.02 mL/s
same,Improvement (%),"guinea pigs [1]; tamsulosin 0.1 mg/kg i.v., control distilled water (Table 9)",−11.8 ± 4.8%
O=C(CCC1CCN(Cc2cccc(Cl)c2)CC1)c1cc2c3c(c1)CCN3C(=O)CC2 [compound 4],ED (2-fold bladder contraction AUC),urinary bladder; [4],0.005 mg/kg
same,IC50,[2],0.0109 µM
Cc1cccc(CN2CCC(CCC(=O)c3cc4c5c(c3)CCN5C(=O)CC4)CC2)c1 [compound 6],ED (2-fold bladder contraction AUC),urinary bladder; [4],0.0049 mg/kg
same,IC50,[2],0.0189 µM
Cc1ccccc1CN1CCC(CCC(=O)c2cc3c4c(c2)CCN4C(=O)CC3)CC1 [compound 7],ED (2-fold bladder contraction AUC),urinary bladder; [4],0.0055 mg/kg
same,IC50,[2],0.0221 µM
O=C(CCC1CCN(Cc2cccc([N+](=O)[O-])c2)CC1)c1cc2c3c(c1)CCN3C(=O)CC2 [compound 12],ED (2-fold bladder contraction AUC),urinary bladder; [4],0.006 mg/kg
same,IC50,[2],0.0081 µM
O=C(CCC1CCN(Cc2ccccc2O)CC1)c1cc2c3c(c1)CCN3C(=O)CC2 [compound 13],ED (2-fold bladder contraction AUC),urinary bladder; [4],0.0013 mg/kg
same,IC50,[2],0.0052 µM
O=C(CCC1CCN(Cc2ccccc2Cl)CC1)c1cc2c3c(c1)CCN3C(=O)CC2 [compound 14],ED (2-fold bladder contraction AUC),urinary bladder; [4],0.0016 mg/kg
same,IC50,[2],0.0099 µM
O=C(CCC1CCN(Cc2ccccc2)CC1)c1cc2c3c(c1)CC(=O)N3CCC2 [compound 18],ED (2-fold bladder contraction AUC),urinary bladder,0.0051 mg/kg
same,IC50,[2],0.0109 µM
Nc1c2c(nc3ccccc13)CCCC2 [compound 30],Efficiency of Urination (%) Before adm.,guinea pigs [3]; 0.3 mg/kg i.v. group (Ref. Ex. 30),62.2 ± 5.1%
same,Efficiency of Urination (%) After adm.,guinea pigs [3]; 0.3 mg/kg i.v.,74.5 ± 5.1%
same,Improvement of Efficiency (%),guinea pigs [3]; 0.3 mg/kg i.v.,22.0** %
same,Efficiency of Urination (%) Before adm.,guinea pigs [3]; 1.0 mg/kg i.v. group (Ref. Ex. 30),62.8 ± 7.8%
same,Efficiency of Urination (%) After adm.,guinea pigs [3]; 1.0 mg/kg i.v.,84.9 ± 4.8%
same,Improvement of Efficiency (%),guinea pigs [3]; 1.0 mg/kg i.v.,55.4* %
same,Efficiency of Urination (%) Before adm.,guinea pigs [3]; 3.0 mg/kg i.v. group (Ref. Ex. 30),65.8 ± 8.9%
same,Efficiency of Urination (%) After adm.,guinea pigs [3]; 3.0 mg/kg i.v.,89.0 ± 2.7%
same,Improvement of Efficiency (%),guinea pigs [3]; 3.0 mg/kg i.v.,64.2* %
